Entries after “also recorded” stand apart in the source; their conditions may differ.
Experiments:
[1] = test system: Notch signalling via DL4:N1 ligand-receptor pair (Notch1); experiment: DL4:N1 coculture assay, Notch driven luciferase reporter; format: cell-based, mouse; conditions: for DL4:N1 (Notch1) driven pathway activation: 10 μM, 24 hours
Excerpt: Mouse DL4-IRES dsRED cDNA was cloned into a pENTR1 vector (Invitrogen®) and finally shuttled into a destination lentivirus vector using Gateway cloning strategy (Invitrogen). A Phosphoglycerate kinase (PGK) promoter drove the expression of DL4 protein. DL4-lentiviral particles were produced in 293T cells by cotransfection of DL4-lentivirus vector, Gag/pol expression plasmid and plasmid encoding for viral envelope proteins. To overexpress Notch1 protein, mouse full length Notch1 cDNA was a cloned in a pCDNA3.1-IRES-puromycin vector. Notch1 cDNA was cloned upstream of IRES-puromycin between HindIII and XbaI restriction sites. A CMV promoter controlled the expression of Notch1 protein.
To measure the Notch signalling activation, CSL/RBP-jk consensus DNA binding sequences were cloned in a head to tail conformation in the pGL4 luciferase vector (Promega), thus named 12×CSL/RBP-jjk luciferase vector. In order to determine the Notch pathway activation in chemical compound screening assay, 12×CSL/RBP-jk consensus DNA binding sequences were cloned into pGL4.26.luciferase vector (Promega). As an internal control for transfection efficiency, SV40 Renilla vector was used (Promega).
In order to generate DL4 and N1 stable cell lines, HeLa cell were bought from ATCC (catalog # CCL-2). To generate DL4 stable lines, cells were transduced with DL4-lentiviral particles. DL4 stable clones were selected using puromycin. High DL4 expressing clones were sorted using antibodies against DL4 with Fluorescence activated cell sorting (FACS). To generate N1 stable line, cell were transfected with a pCDNA3.1+(Invitrogen) plasmid containing mouse full length Notch1 under the control of CMV promoter. To select for Notch1 expressing clones, an IRES puromycin cassette was cloned downstream of Notch1 cDNA. HeLa cells expressing high levels of Notch1 were enriched by FACS using anti-Notch1 antibodies. DL4- and N1-HeLa cells were cultured in DMEM (GIBCO, Invitrogen), 10% FCS and 10 ug/ml of puromycin (Sigma).
For chemical library screen, the coculture assay was performed as follows. N1-HeLa cells were cotransfected in 10 cm tissue culture dishes with 16 μg of pGL4.26. 12×CSL.luciferase vector/plate, 4 μg of Notch1 expression plasmid/plate, and 200 ng of SV40 Renilla vector/plate. DL4- and N1-HeLa cells were detached from the plate by using 0.5 mM EDTA (1×PBS). The both cell populations were counted and mixed in 1:1 ratio (5,000:5,000 cells/well in a 384 well plate) and dispensed into 384 well plates (white, clear bottom, Corning) using multidrop Combi plate dispenser. The assay plates were pre-dispensed (using automated Biomek 3000 liquid handler) with chemical compound libraries (Microsource NIMDS, Maybridge Hitfinder and Prestwick) to give a final concentration of 10 μM. The final assay volume was 22 μls. Twenty-four hours later, growth media was aspirated and cells were lysed with 1× Passive lysis buffer for 10 minutes at room temperature. Luciferase activity was measured using Luciferase Assay Reagent II and Renilla values were determined by using Stop and Glow reagent (Dual luciferase assay system, Cat #E1980, Promega). Luciferase and renilla readouts were taken using Tecan® F500 (Tecan) multiplate reader. All the liquid handling steps (aspiration of the medium, dispensing of Passive lysis buffer, Luciferase Assay Reagent II and Stop and Glow reagents) were performed using ELF406 liquid handler.
In order to identify novel modulators of the Notch pathway, Applicants have established a coculture assay in which DL4 ligand expressing HeLa cells were cultured with N1 HeLa cells, thereby activating the Notch pathway. The use of a DL4 and N1 HeLa cell coculture system mimics physiological conditions of cell-cell communication between ligand and receptor expressing cells. The in vitro generation of a controlled receptor-ligand assay system allowed Applicants to modify and monitor the Notch signal intensity by γ-secretase inhibitors. […]

[2] = test system: Notch signalling via DL4:N2 ligand-receptor pair (Notch2); experiment: DL4:N2 coculture assay, Notch driven luciferase reporter; format: cell-based; conditions: 10 μM, 24 hours
Excerpt: Next Applicants investigated whether I3 could block pathway activation via other Notch receptors or is it specific to Notch1 signalling. To address this, a coculture assay was used where Notch signalling was activated via DL4:N1 or DL4:N2 ligand receptor pairs.

[3] = test system: Notch-independent RAJI cells; experiment: Alamar blue proliferation assay, RAJI; format: cell-based; conditions: control line with no known Notch mutations
Procedure: (§1) Alamarblue® proliferation assays were performed to determine the growth kinetics of Notch inhibitor treated cells. Alamar Blue® consists of a cell permeable substrate resazurin. In metabolically active and proliferating cells, resazurin is converted to resorufin due to an intrinsic reducing power of live cells and produces a red fluorescence. Therefore production of resorufin serves as an indicator of the viability of the cell population.
Proliferation assays were performed by seeding 5000 cells/well in a 96 well plate. Cells were treated with DMSO or Notch inhibitors for different time intervals. Each treatment for every time interval was carried out in 8 replicates. To determine the growth kinetics, 10 μl of Alamar Blue® (Invitrogen) was added to each well and incubated for 4 hours. Alamarblue readout was taken using Tecan F500 (Tecan) multiplate reader.
As treatment of the human T-ALL cell lines and PANC1 pancreatic cancer cell line with 6-(4-Tert-Butylphenoxy)Pyridin-3-Amine (I3) induced a downregulation of Notch signalling, Applicants questioned whether this inhibition of the pathway translates into growth arrest in cancer cells. To this end, RPMI 8402, KOPTK1, PANC1 and nRas driven melanoma cell lines were grown in the presence or absence of 6-(4-Tert-Butylphenoxy)Pyridin-3-Amine (I3) for several days and their proliferative index was measured using the Alamar blue assay. […]

[4] = test system: nRas driven melanoma cell lines; experiment: Alamar blue proliferation assay, nRas driven melanoma cells; format: cell-based, human; conditions: 10 μM, 4 days
Procedure: Human T-ALL cell lines RPMI 8402 and KOPTK1, and pancreatic cancer cell line PANC1 as well as nRas driven melanoma cells were seeded in a 96 well plate and treated with 10 μM concentration of 6-(4-Tert-Butylphenoxy)Pyridin-3-Amine (I3) and DAPT for several days. Their growth inhibitory effects were compared with cells treated with equal amount of DMSO. Using Alamar blue assay, the growth kinetics of RPMI 8402 and KOPTK1 were followed for upto 6 days, while PANC1 and nRas melanoma cells were monitored for 4 days. 6-(4-Tert-Butylphenoxy)Pyridin-3-Amine (I3) treatment of RPMI 8402, KOPTK1. […] Statistical analyses were done using student's t.test. *=p value<0.05. ns=not significant.
as §1
Proliferation assays were performed by seeding 5000 cells/well in a 96 well plate. Cells were treated with DMSO or Notch inhibitors for different time intervals. […] Alamarblue readout was taken using Tecan F500 (Tecan) multiplate reader. […]

`C[C@H](NC(=O)Cc1cc(F)cc(F)c1)C(=O)N[C@H](C(=O)OC(C)(C)C)c1ccccc1` [DAPT, N—[N-(3,5-difluorophenacetyl-Lalanyl)]-(S)-phenylglycine t-butyl ester, reference compound] was tested, and the “downregulation of Notch signalling activation” value ([1]; 10 μM DAPT vs DMSO, 384 well plate) was 10 fold, the “DL4:N1 (Notch1) driven pathway activation” value [1] was “block Notch1 and Notch2 induced pathway activation” and the “DL4:N2 (Notch2) driven pathway activation” value [2] was “block Notch1 and Notch2 induced pathway activation”. The proliferation [3] was “neither DAPT nor 6-(4-Tert-Butylphenoxy)Pyridin-3-Amine (I3) had any effect on the proliferation”.
`CC(C)(C)c1ccc(Oc2ccc(N)cn2)cc1` [I3, 6-(4-Tert-Butylphenoxy)Pyridin-3-Amine] was tested, and the “DL4:N1 (Notch1) driven pathway activation” value [1] was “caused an inhibition of Notch signalling via both DL4:N1 and DL4:N2 ligand-receptor pairs; also recorded: block Notch1 and Notch2 induced pathway activation”, the “DL4:N2 (Notch2) driven pathway activation” value [2] was “caused an inhibition of Notch signalling via both DL4:N1 and DL4:N2 ligand-receptor pairs; also recorded: block Notch1 and Notch2 induced pathway activation” and the “proliferation (Alamar blue)” value [4] was “significantly inhibited the growth; also recorded: caused a significant reduction in their growth potential”. For the same molecule, the proliferation [3] was “neither DAPT nor 6-(4-Tert-Butylphenoxy)Pyridin-3-Amine (I3) had any effect on the proliferation”.
